Data set [1] has as its system Huh-7. Briefly: Induction of autophagic flux in human Huh-7 cells assessed as increase in number of autophagic vesicles at 10 nM by transmission electron microscopic analysis. The class given is functional, cell-based.
The test system of data set [2] is Huh-7. Briefly: Induction of autophagic flux in human Huh-7 cells assessed as rescue of LC3-II accumulation at 10 uM incubated for 48 hrs in presence of gamabufotalin by Western blot analysis. The class given is functional, cell-based. (In general: Immunoblotting shows a protein as a band on a membrane.)
Data set [3] concerns Hep 3B2. The data set can be described thus: Induction of apoptosis in human Hep3B cells assessed as necrotic cells at 10 nM incubated for 48 hrs by Annexin V-FITC/PI staining based flow cytometry method (reference value: 1.2%). The class given is functional.
Data set [4] has as its system Hep 3B2. Briefly: Induction of apoptosis in human Hep3B cells assessed as late apoptotic cells at 10 nM incubated for 48 hrs in presence of gamabufotalin by Annexin V-FITC/PI staining based flow cytometry method (reference value: 3.5%). The class given is functional. (Flow cytometry measures light scatter and fluorescence of single cells or particles in a stream.)
Data set [5] deals with Huh-7. Briefly: Induction of apoptosis in human Huh-7 cells assessed as necrotic cells at 10 nM incubated for 48 hrs in presence of gamabufotalin by Annexin V-FITC/PI staining based flow cytometry method (reference value: 1.0%). The data set is classed as functional.
For data set [6], the system named is Hep 3B2. The data set can be described thus: Induction of apoptosis in human Hep3B cells assessed as increase in cleaved PARP level at 10 nM incubated for 48 hrs in presence of gamabufotalin by immunoblot analysis. The data set is classed as functional, cell-based.
Data set [7] has as its system Hep 3B2. The data set can be described thus: Induction of apoptosis in human Hep3B cells assessed as decrease in bcl-2 level at 10 nM incubated for 48 hrs in presence of gamabufotalin by immunoblot analysis. The data set is classed as functional, cell-based.
Data set [8] has as its system Hep 3B2. Briefly: Induction of autophagy in human Hep3B cells assessed as rescue of ULK1 phosphorylation level at upto 10 nM incubated for 48 hrs in presence of gamabufotalin by immunoblot method. The class given is functional, cell-based.
Data set [9] deals with Hep 3B2. Briefly: Induction of autophagic flux in human Hep3B cells harbouring mCherry-egfp-LC3 assessed as reduction in number of red puncta ratio at 10 nM incubated for 15 mins in presence of gamabufotalin by laser scanning confocal microscopic analysis. The class given is functional, cell-based.
Data set [10] concerns Hep 3B2. The data set can be described thus: Induction of apoptosis in human Hep3B cells assessed as viable cells at 20 nM incubated for 48 hrs by Annexin V-FITC/PI staining based flow cytometry method (reference value: 93.3%). The data set is classed as functional. Particulars: read-out: Activity.
The test system of data set [11] is Hep 3B2. The data set can be described thus: Induction of apoptosis in human Hep3B cells assessed as condensed nuclei at […] incubated for 48 hrs by Hoechst33258 staining based fluorescence microscopy. The data set is classed as functional, cell-based.
Data set [12] concerns Hep 3B2. Briefly: Induction of apoptosis in human Hep3B cells assessed as fragmented nuclei at […] incubated for 48 hrs by Hoechst33258 staining based fluorescence microscopy. The class given is functional, cell-based.
Data set [13] deals with Huh-7. Briefly: Induction of apoptosis in human Huh-7 cells assessed as increase in PARP expression at upto 25 nM incubated for 48 hrs by Western blot analysis. The class given is functional, cell-based.
For data set [14], the system named is Hep 3B2. The data set can be described thus: Induction of apoptosis in human Hep3B cells assessed as viable cells at 25 nM measured after 48 hrs by annexin V-FITC/Propidium iodide staining based flow cytometric analysis (reference value: 95.6%). Particulars: read-out: Activity. The class given is functional.
In data set [15] the test system is Hep 3B2. Briefly: Induction of apoptosis in human Hep3B cells assessed as early apoptotic cells at 25 nM measured after 48 hrs by annexin V-FITC/Propidium iodide staining based flow cytometric analysis (reference value: 1.6%). The data set is classed as functional.
Data set [16] deals with Huh-7. The data set can be described thus: Induction of apoptosis in human Huh-7 cells assessed as late apoptotic cells at 25 nM measured after 48 hrs in presence of z-VAD-FMK by annexin V-FITC/Propidium iodide staining based flow cytometric analysis (reference value: 6.1%). The class given is functional.
Data set [17] relates to Huh-7. Briefly: Induction of autophagic flux in human Huh-7 cells assessed as increase in high electron density vesicles at 25 nM incubated for 48 hrs by transmission electron microscopic analysis. The class given is functional, cell-based.
For data set [18], the system named is Hep 3B2. Briefly: Induction of autophagic flux in human Hep3B cells assessed as rescue of LC3-I accumulation at 25 uM incubated for 48 hrs in presence of chloroquine by Western blot analysis. The class given is functional, cell-based.
Data set [19] concerns Hep 3B2. Briefly: Induction of apoptosis in human Hep3B cells assessed as early apoptotic cells at 25 nM incubated for 48 hrs in presence of chloroquine by Annexin V-FITC/PI staining based flow cytometry method (reference value: 1.3%). The class given is functional.
Data set [20] deals with Hep 3B2. Briefly: Induction of apoptosis in human Hep3B cells assessed as late apoptotic cells at 25 nM incubated for 48 hrs in presence of chloroquine by Annexin V-FITC/PI staining based flow cytometry method (reference value: 3.5%). The data set is classed as functional.
For data set [21], the system named is Huh-7. The data set can be described thus: Induction of apoptosis in human Huh-7 cells assessed as viable cells at 25 nM incubated for 48 hrs by Annexin V-FITC/PI staining based flow cytometry method (reference value: 91.5%). The data set is classed as functional. Particulars: read-out: Activity.
For data set [22], the system named is Huh-7. Briefly: Induction of apoptosis in human Huh-7 cells assessed as late apoptotic cells at 25 nM incubated for 48 hrs by Annexin V-FITC/PI staining based flow cytometry method (reference value: 4.7%). The data set is classed as functional.
Data set [23] relates to Huh-7. The data set can be described thus: Induction of apoptosis in human Huh-7 cells assessed as late apoptotic cells at 25 nM incubated for 48 hrs in presence of chloroquine by Annexin V-FITC/PI staining based flow cytometry method (reference value: 4.7%). The data set is classed as functional.
The subject of data set [24] is Hep 3B2. The data set can be described thus: Induction of apoptosis in human Hep3B cells assessed as necrotic cells at 25 nM incubated for 48 hrs by Annexin V-FITC/PI staining based flow cytometry method (reference value: 0.7%). The data set is classed as functional.
Data set [25] relates to Huh-7. The data set can be described thus: Induction of apoptosis in human Huh-7 cells assessed as early apoptotic cells at 25 nM incubated for 48 hrs in presence of 4,6-dimorpholino-N-(4-nitrophenyl)-1,3,5-triazin-2-amine by Annexin V-FITC/PI staining based flow cytometry method (reference value: 4.3%). The data set is classed as functional.
The subject of data set [26] is Hep 3B2. The data set can be described thus: Induction of apoptosis in human Hep3B cells assessed as upregulation of cleaved caspase-3 level […] incubated for 48 hrs in presence of 4,6-dimorpholino-N-(4-nitrophenyl)-1,3,5-triazin-2-amine by immunoblot analysis. The class given is functional, cell-based.
For data set [27], the system named is Hep 3B2. Briefly: Induction of apoptosis in human Hep3B cells assessed as upregulation of bax level […] incubated for 48 hrs in presence of 4,6-dimorpholino-N-(4-nitrophenyl)-1,3,5-triazin-2-amine by immunoblot analysis. The data set is classed as functional, cell-based.
Data set [28] concerns Huh-7. The data set can be described thus: Induction of apoptosis in human Huh-7 cells assessed as upregulation of PARP level […] incubated for 48 hrs in presence of 4,6-dimorpholino-N-(4-nitrophenyl)-1,3,5-triazin-2-amine by immunoblot analysis. The class given is functional, cell-based.
Data set [29] concerns Huh-7. Briefly: Induction of autophagy in human Huh-7 cells assessed as rescue of mTOR phosphorylation level at upto 25 nM incubated for 48 hrs in presence of chloroquine by immunoblot method. The class given is functional, cell-based.
Data set [30] deals with Huh-7. Briefly: Induction of autophagy in human Huh-7 cells assessed as downregulation of LC3II/LC3I ratio at 25 uM incubated for 48 hrs in presence of 4,6-dimorpholino-N-(4-nitrophenyl)-1,3,5-triazin-2-amine by immunoblot analysis. The class given is functional, cell-based.
Data set [31] is described as follows: Toxicity in mouse assessed as effect on heart at 5 mg/kg,ip administered every second day for 3 weeks by H and E staining based microscopic method. The class given is organism-based. Particulars: in vivo, 504 h.
Data set [32] is described as follows: Toxicity in mouse assessed as effect on lungs at 5 mg/kg,ip administered every second day for 3 weeks by H and E staining based microscopic method. The class given is organism-based. Particulars: in vivo, 504 h.
The nature of data set [33]: Toxicity in mouse assessed as effect on serum BUN level at 5 mg/kg,ip administered every second day for 3 weeks by H and E staining based microscopic method. The class given is organism-based. Particulars: in vivo, 504 h.

Structures are written as SMILES. Active and inactive are the calls of the source. The rule behind the calls is not given here.

For `CCN(CC)CCCC(C)Nc1ccnc2cc(Cl)ccc12` (stereo not drawn) [CHLOROQUINE], the outcome in the data set with Huh-7 [1], in the data set on Huh-7 [2], with Hep 3B2 [6], with Hep 3B2 [7], in the data set with Hep 3B2 [8] and with Hep 3B2 [9] was Active. Also, the Activity worked out at 0.4% in the data set with Hep 3B2 [3], 17.4% in the data set with Hep 3B2 [4] and 3.4% with Huh-7 [5].

Turning to `C[C@]12CC[C@H](O)C[C@H]1CC[C@@H]1[C@@H]2[C@H](O)C[C@]2(C)[C@@H](c3ccc(=O)oc3)CC[C@]12O` [GAMABUFOTALIN], the viability at 0.02 µM with Hep 3B2 [10] is 88.7%. The outcome with Hep 3B2 [11], with Hep 3B2 [12], in the data set with Huh-7 [13], in the data set with Huh-7 [17], in the data set with Hep 3B2 [18] and in the data set with Hep 3B2 [26] was Active. Besides, the result with Hep 3B2 [27], in the data set with Huh-7 [28], in the data set with Huh-7 [29] and with Huh-7 [30] was Active. The viability at 0.025 µM in the data set with Hep 3B2 [14] was 79.6%; in the data set on Huh-7 [21] it was 80%. For the same compound, the Activity is given as 6.6% with Hep 3B2 [15]; 7.4% with Huh-7 [16]; 17.9% in the data set with Hep 3B2 [19]; 17.4% with Hep 3B2 [20]; 10.2% in the data set on Huh-7 [22]; 19.1% in the data set with Huh-7 [23]. Moreover, the Activity is reported as 0.5% with Hep 3B2 [24]; 14.9% in the data set with Huh-7 [25]; “Non-Toxic” in data set [31]; “Non-Toxic” in data set [32]; “Non-Toxic” in [33].

For the origin of these results see ChEMBL document CHEMBL5257089, “Gamabufotalin Induces Apoptosis and Cytoprotective Autophagy through the mTOR Signaling Pathway in Hepatocellular Carcinoma” (J Nat Prod, 2023).
